Measured values published in publication PMC12591484 (PLOS One, 2025).

What was measured:
[1] = system: α1β3γ2L GABAA receptors, bulky mutation at α1L232; set-up: key: +: Mutant-function studies are deemed positive when bulky mutations (mostly tryptophans) at the site significantly reduce positive modulation by anesthetics; -: Negative results are indicated by “–“ symbols; conditions: cited from earlier work
[2] = system: α1β3γ2L GABAA receptors, bulky mutation at β3M286; set-up: method as in PMID 30696720; key: +: Mutant-function studies are deemed positive when bulky mutations (mostly tryptophans) at the site significantly reduce positive modulation by anesthetics; -: Negative results are indicated by “–“ symbols; conditions: cited from earlier work
[3] = biological target: T1, α1β3γ2S301C GABAA receptors (Homo sapiens, UniProt P14867+P18507+P28472, S340C); assay: Drug protection from pCMBS modification (SCAMP); format: cell-based; set-up: key: +: Mutant-function studies are deemed positive when bulky mutations (mostly tryptophans) at the site significantly reduce positive modulation by anesthetics; -: Negative results are indicated by “–“ symbols; conditions: results of this study (*)
T1 construct: expressed in transfected cells; host or cells: Xenopus oocytes injected with capped mRNAs mixed 1α:1β:5γ
T1 sequence (P14867 28-456): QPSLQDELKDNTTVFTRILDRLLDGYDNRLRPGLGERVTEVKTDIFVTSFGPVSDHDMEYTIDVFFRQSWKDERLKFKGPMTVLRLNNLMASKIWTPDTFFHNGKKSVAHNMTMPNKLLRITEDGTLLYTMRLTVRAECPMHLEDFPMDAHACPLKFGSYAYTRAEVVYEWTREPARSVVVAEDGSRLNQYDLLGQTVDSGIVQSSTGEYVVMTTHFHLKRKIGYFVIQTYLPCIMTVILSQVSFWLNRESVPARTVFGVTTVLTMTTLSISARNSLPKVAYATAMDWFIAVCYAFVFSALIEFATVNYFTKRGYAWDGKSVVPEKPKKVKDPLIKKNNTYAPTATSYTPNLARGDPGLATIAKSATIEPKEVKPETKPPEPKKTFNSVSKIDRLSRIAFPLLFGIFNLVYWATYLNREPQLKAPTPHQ
T1 sequence (P28472 26-473): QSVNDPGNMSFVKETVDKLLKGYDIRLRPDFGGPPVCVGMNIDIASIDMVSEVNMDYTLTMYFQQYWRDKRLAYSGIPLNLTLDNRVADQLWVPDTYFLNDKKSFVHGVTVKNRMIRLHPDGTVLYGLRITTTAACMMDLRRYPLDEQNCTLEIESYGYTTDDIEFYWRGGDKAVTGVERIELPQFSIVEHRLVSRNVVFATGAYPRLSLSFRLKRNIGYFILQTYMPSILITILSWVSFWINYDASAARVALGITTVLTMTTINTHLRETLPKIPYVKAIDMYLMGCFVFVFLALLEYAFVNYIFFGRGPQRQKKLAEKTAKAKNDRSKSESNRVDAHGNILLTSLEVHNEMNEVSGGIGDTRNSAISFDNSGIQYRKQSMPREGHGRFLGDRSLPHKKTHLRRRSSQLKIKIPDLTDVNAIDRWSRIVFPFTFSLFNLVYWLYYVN
T1 sequence (P18507 40-475 S340C): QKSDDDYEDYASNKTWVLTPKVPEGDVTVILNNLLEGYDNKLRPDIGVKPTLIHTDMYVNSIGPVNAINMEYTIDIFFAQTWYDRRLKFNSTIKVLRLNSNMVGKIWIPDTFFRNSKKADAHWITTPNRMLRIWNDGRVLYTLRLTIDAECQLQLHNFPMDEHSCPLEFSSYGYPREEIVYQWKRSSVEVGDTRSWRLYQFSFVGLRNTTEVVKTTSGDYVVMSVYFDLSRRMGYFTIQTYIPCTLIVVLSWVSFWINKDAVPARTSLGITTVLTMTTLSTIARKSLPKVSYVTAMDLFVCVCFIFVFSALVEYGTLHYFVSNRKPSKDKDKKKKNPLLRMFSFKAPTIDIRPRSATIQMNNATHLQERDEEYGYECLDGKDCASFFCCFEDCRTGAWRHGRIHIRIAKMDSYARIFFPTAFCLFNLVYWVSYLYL
Procedure: (§1) Experiments were performed in ND-96 buffer at room temperature (20–22°C). Oocytes were placed in a low-volume (30µl) flow chamber and impaled with borosilicate microelectrodes filled with 3M KCl (resistance 0.5–3 MΩ) and voltage-clamped at −50 mV (model OC-725C; Warner Instruments, Hamden, CT, USA). Superfusate solutions in ND-96 were delivered at 2 ml/min from glass syringe reservoirs via computer-controlled valves (VC-8; Warner Instruments), a micro-manifold (ALA-VM8; ALA Scientific Instruments, Farmingdale, NY, USA), and PTFE tubing. Currents were digitized at 200 Hz on a computer running ClampEx v8.0 software (Molecular Devices, San Jose, CA, USA). Digitized traces were filtered with a 10-Hz low-pass Bessel function, leak corrected and analyzed for peak amplitude off-line using Clampfit v8 software (Molecular Devices).
(§2) Drug protection from pCMBS modification was assessed under pCMBS exposure conditions that produced approximately half of the maximal modification ratio for each mutant receptor, and a least a value of 3. This approach balanced the magnitude of functional modification signals (smaller with less pCMBS exposure) against the challenge of using a reversibly bound ligand to competitively block an irreversible covalent cysteine-modifying reaction. […] Each oocyte was used in a single SCAMP experiment. […] Etomidate was used as a positive control for anesthetic protection in α1M236C and β3M286C mutants and as a negative control in α1S270C, α1A291C, β3L231C, γ2S301C, γ2I242C, and γ2L246C mutants. R-mTFD-MPAB was used as a positive control in α1S270C, α1A291C, β3L231C, and γ2LS301C mutants and as a negative control in α1M236C and β3M286C mutants. For each cysteine mutant and protective drug combination, five oocytes were studied.
(§3) Non-linear least squares fits and statistical analyses were performed in Prism 10.4.0. (GraphPad Software, San Diego, CA, USA). […] Protection (steric inhibition of pCMBS modification) was inferred when anesthetics produced significant reductions in modification ratios relative to control (no anesthetic) values. The statistical significance threshold was p < 0.05.

[4] = biological target: T2, α1β3L231Cγ2L GABAA receptors (Homo sapiens, UniProt P14867+P18507+P28472, L256C); assay: Drug protection from pCMBS modification (SCAMP); format: cell-based; set-up: key: +: SCAMP is Substituted Cysteine Modification and Protection and is positive when adding anesthetic to cysteine modifier significantly reduces persistent post-exposure effects due to covalent modification; -: Negative results are indicated by “–“ symbols; conditions: results of this study (*); some cells also cite [9]
T2 construct: expressed in transfected cells; host or cells: Xenopus oocytes injected with capped mRNA, 1α:1β:5γ
Procedure: as §1, §2, §3

T2 sequence (P28472 26-473 L256C, one chain of several): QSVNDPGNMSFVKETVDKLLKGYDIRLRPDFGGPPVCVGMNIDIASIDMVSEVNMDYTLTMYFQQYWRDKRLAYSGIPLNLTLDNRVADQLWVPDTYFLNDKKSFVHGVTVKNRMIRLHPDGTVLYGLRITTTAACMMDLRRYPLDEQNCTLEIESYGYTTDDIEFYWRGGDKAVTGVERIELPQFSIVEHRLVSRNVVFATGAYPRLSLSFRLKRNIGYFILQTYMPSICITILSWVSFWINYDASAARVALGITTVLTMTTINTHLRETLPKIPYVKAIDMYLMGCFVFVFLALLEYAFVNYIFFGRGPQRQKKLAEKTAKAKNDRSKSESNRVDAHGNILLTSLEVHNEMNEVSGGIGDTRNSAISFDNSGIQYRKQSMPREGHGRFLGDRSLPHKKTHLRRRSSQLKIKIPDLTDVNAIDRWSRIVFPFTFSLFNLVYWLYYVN
T2 sequence (P18507 40-475, one chain of several): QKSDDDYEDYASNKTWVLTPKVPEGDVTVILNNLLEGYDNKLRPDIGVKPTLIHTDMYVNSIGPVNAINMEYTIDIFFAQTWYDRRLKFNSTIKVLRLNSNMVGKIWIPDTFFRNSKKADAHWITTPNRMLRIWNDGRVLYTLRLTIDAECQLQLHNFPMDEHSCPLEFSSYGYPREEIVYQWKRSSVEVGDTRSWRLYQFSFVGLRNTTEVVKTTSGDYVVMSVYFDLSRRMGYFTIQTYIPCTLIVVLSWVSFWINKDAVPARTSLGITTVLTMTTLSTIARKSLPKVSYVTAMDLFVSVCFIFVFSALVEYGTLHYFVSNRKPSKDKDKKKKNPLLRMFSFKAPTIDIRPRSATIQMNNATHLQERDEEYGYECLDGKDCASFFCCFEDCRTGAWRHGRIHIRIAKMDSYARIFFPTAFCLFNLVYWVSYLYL

## CCOC(=O)c1cncn1[C@H](C)c1ccccc1 [etomidate, R-etomidate]
[1]
  Mutant-function result, α1– (M1) L232: +^[9, 12]
[2]
  Mutant-function result, β3+ (M2, M3) M286: +^[13]
[3]
  SCAMP result, γ2+ (M2, M3) S301: -*

## CC(C)c1cc(C2(C(F)(F)F)N=N2)cc(C(C)C)c1CO [pTFD-di-iPr-BnOH]
[4]
  SCAMP result, β3– (M1) L231: +*
[3]
  SCAMP result, γ2+ (M2, M3) S301: -*

## C=CCC1(c2cccc(C3(C(F)(F)F)N=N3)c2)C(=O)NC(=O)N(C)C1=O (centres unmarked) [R-mTFD-MPAB, R-5-allyl-1-methyl-5-(m-trifluoromethyl-diazirynylphenyl) barbituric acid]
[1]
  Mutant-function result, α1– (M1) L232: -^[9]
[2]
  Mutant-function result, β3+ (M2, M3) M286: -^[13]
[4]
  SCAMP result, β3– (M1) L231: +^[9], *
